Measurements taken from the supplement of paper PMC2824726.

Test system: MDA-MB-231
Experiment: shRNA barcode abundance ratio t_end/t_zero (depletion over 4 weeks of proliferation) (log2 ratio); higher = less depletion (weaker anti-proliferative effect of the shRNA)
Conditions: time after t zero 28 days
Procedure, shortened: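 Cells of the MDA-MB-231 line were transduced with a pooled lentiviral shRNA library at an MOI of 0.3 and selected in 0.5 μg/ml puromycin, and genomic DNA was collected from three biological replicates at 5 days (t_zero) and 33 days post-infection. The barcodes were amplified by PCR, labelled with biotin and hybridised for 16 h at 45°C to Geniom One tiling arrays carrying six 25-nt probes per barcode, then detected with streptavidin phycoerythrin. For the abundance ratio, each t_end/t_zero signal ratio is normalised to the subarray median and averaged over background-filtered probes. This average is taken on a log2 scale.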

| Sequence | shRNA barcode abundance ratio t end/t zero (log2) |
| --- | --- |
| GCACAGCATCAAACCAAGTTA (targeted gene: MLH1) | 0.165 |
| CGGAGAGTTATCCTGATAAAT (targeted gene: SFRP1) | -0.114 |
| CCTCATGTCTTGATAAGTTAA (targeted gene: FOXO1) | 0.0815 |
| CCTCACCCTGTCAGGTATCAA (targeted gene: MYBL2) | -0.1 |
| CGCAGATAGGAGTAGTCTTTA (targeted gene: NFIA) | 0.432 |
| GCAGTAGCCTTGATAGATTAT (targeted gene: BIRC6) | -0.00928 |
| CGTGATTCTAAGAATCTCAAA (targeted gene: IL1A) | 0.666 |
| CCGTTATGAAAGAGAAATGAA (targeted gene: HMGB1) | -0.0571 |
| GGCCCAAATTATCAAGCTAAT (targeted gene: CRYAB) | -0.348 |
| CCGCCTCTTTGACCAGTTCTT (targeted gene: CRYAB, Cryab) | 0.00542 |
| CGTCGTAATCACCACACTGAA (targeted gene: CDH1) | 0.11 |
| GCTAACTGTGTGTACATATAT (targeted gene: PEA15) | -0.216 |
| GCACATCCTTGCTAATTTCAA (targeted gene: TPT1) | 0.0219 |
| GCCCTGTACTTTAACCCAATT (targeted gene: BFAR) | 0.0378 |
| TCAAATTGCGGCACATGTCAT (targeted gene: CD40LG) | -0.0903 |
| CCTTAAATCCTCATTGCAAAT (targeted gene: USP9X) | -0.782 |
| GCACAAGCAGCTGATCCGATT (targeted gene: IL4) | -0.0177 |
| GCTATACGAATGGGATTTGAT (targeted gene: BIRC8) | 0.211 |
| GGCCCAAGGTCCAAGTAGAAT (targeted gene: HSPA8) | 0.332 |
| ACAGATATTTACTTCTGCAAA (targeted gene: CD28) | 0.143 |
| GGTCTTACTGAAGTAACACAA (targeted gene: TAX1BP1) | 0.346 |
| GGAAGTGATCCAAATGTTAAA (targeted gene: BARD1) | -2.23 |
| GGACTTCAGCAGAAATCTTTA (targeted gene: CASP8) | 0.126 |

| Sequence | shRNA barcode abundance ratio t end/t zero (log2) |
| --- | --- |
| GGCCCAGTGTTTCTTCTGCTT (targeted gene: BIRC5) | -0.948 |
| GCTGAGACAACGTACGACAAA (targeted gene: GDNF) | -0.263 |
| CCATTCTGATTCTTCAGTCAT (targeted gene: TOPORS) | 0.459 |
| CCCTTCTTTGGGAATATAATT (targeted gene: CBX4) | 0.505 |
| CCTGGCTCCTCTACTGTTTAA (targeted gene: BIRC5) | -0.954 |
| GCGTCGTTAATTTATTTCTTA (targeted gene: IER3) | 0.159 |
| CCTTGCTGTTGTGAAATCTAT (targeted gene: ANXA5) | -0.252 |
| CCAGATAATATTAAGGGAAAT (targeted gene: ABCB1) | 0.255 |
| GCCTATGACTTTATCATGAAA (targeted gene: ABCB1) | 0.0933 |
| GCTCAACAGATCCAATTTCAT (targeted gene: RBKS) | -0.0517 |
| GGACATGACAACTCATCTCAT (targeted gene: IL6) | 0.175 |
| GCGTCTGGCCTCCTTCTATGA (targeted gene: BIRC7) | 0.556 |
| GGACAAAGTTTACCAAATGAA (targeted gene: CASP8) | 0.402 |
| CCTTTGAACTTGATTGCCTAT (targeted gene: SFRP1) | -0.127 |
| CGAGCCCTGGACACCAACTAT (targeted gene: TGFB1) | 0.183 |
| ACTTACACTTAGAAATTAAAT (targeted gene: XIAP) | 0.473 |
| AGGCAATTTATCTTGATGTGA (targeted gene: FAIM3) | 0.137 |
| CCATAGCAAGGCCTAATGTTA (targeted gene: FANCF) | 0.00383 |
| GCAGTATAGAGCGTGCAGATA (targeted gene: PTEN) | -0.0774 |
| GCTCTTCCACTCAGGTGAGAA (targeted gene: LOC284939) | -0.0337 |
| ACGCTGATCGAGAATGGAGAA (targeted gene: NUP62) | -0.334 |
| ACAGTTTGAGTCAACTAGAAT (targeted gene: CD28) | 0.508 |
